ChEMBL document CHEMBL4371087, “Development of novel liver X receptor modulators based on a 1,2,4-triazole scaffold” (Bioorg Med Chem Lett, 2019)
Active and inactive are the calls of the source. The rule behind the calls is not given here.

Experiments:
Format in all cases: cell-based
[1] = target: T1, Oxysterols receptor LXR-alpha (Homo sapiens, UniProt Q13133); assay: Agonist activity at full length human LXRalpha expressed in HEK293 cells harboring LXRE-Luc promoter by luciferase reporter gene assay
T1 sequence (Q13133 whole entry): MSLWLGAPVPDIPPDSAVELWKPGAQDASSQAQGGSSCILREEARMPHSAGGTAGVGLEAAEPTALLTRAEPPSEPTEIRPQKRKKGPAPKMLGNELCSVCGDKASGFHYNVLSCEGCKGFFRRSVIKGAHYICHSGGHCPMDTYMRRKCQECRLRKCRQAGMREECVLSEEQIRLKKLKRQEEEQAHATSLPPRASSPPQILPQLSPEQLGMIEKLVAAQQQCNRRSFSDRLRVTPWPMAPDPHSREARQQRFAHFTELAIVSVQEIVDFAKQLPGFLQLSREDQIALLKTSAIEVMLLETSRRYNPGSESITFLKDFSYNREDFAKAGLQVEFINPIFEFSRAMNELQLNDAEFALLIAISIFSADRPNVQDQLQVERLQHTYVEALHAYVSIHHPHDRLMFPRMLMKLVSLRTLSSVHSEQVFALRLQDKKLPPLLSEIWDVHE

[2] = target: T2, Oxysterols receptor LXR-alpha (Homo sapiens) (UniProt Q13133); assay: Agonist activity at full length human LXRalpha expressed in HEK293 cells harboring LXRE-Luc promoter at 10 uM by luciferase reporter gene assay relative to T0901317
T2 sequence (whole entry): T1 sequence (Q13133 whole entry)

[3] = target: T3, Oxysterols receptor LXR-beta (Homo sapiens, UniProt P55055); assay: Agonist activity at full length human LXRbeta expressed in HEK293 cells harboring LXRE-Luc promoter by luciferase reporter gene assay
T3 sequence (P55055 whole entry): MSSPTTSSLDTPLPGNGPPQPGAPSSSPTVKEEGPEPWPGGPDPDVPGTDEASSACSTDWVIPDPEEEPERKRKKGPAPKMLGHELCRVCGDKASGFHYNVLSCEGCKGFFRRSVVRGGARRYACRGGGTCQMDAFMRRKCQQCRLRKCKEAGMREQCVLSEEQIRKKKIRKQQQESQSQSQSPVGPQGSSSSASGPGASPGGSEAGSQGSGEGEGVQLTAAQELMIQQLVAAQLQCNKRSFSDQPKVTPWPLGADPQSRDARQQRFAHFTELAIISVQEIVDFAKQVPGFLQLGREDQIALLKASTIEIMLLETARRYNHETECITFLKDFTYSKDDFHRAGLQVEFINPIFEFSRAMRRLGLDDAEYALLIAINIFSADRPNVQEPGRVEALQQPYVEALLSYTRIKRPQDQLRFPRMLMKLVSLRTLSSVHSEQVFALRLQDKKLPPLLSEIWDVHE

[4] = target: T4, Oxysterols receptor LXR-beta (Homo sapiens) (UniProt P55055); assay: Agonist activity at full length human LXRbeta expressed in HEK293 cells harboring LXRE-Luc promoter at 10 uM by luciferase reporter gene assay relative to T0901317
T4 sequence (whole entry): T3 sequence (P55055 whole entry)

[5] = organism: Homo sapiens; assay: Selectivity ratio of EC50 for full length human LXRalpha expressed in HEK293 cells to EC50 for full length human LXRbeta expressed in HEK293 cells

EC50 [1] [nM] | Emax [2] | EC50 [3] [nM] | Emax [4] | SMILES | Ratio EC50 [5]
1700 | 75% | 259 | 81% | Cc1ccc(S(=O)(=O)n2nc(-c3ccccc3)nc2-c2ccccc2)cc1 | 6.58
 | inactive |  | inactive | COc1cccc(-c2nc(-c3ccccc3)n(S(=O)(=O)c3ccc(C)cc3)n2)c1 | 
1190 | 77% | 1990 | 83% | Cn1nc(-c2ccc(Cl)cc2)nc1-c1ccccc1 | 0.6
142 |  | 1010 |  | c1ccc(-c2n[nH]c(-c3ccccc3)n2)cc1 | 
903 | 62% | 2360 | 69% | COc1cccc(-c2nc(-c3ccccc3)n(Cc3ccccc3)n2)c1 | 0.38
2470 | 64% | 2640 | 71% | Cn1nc(-c2ccccc2)nc1-c1ccccc1 | 0.94
309 | 51% | 245 | 60% | Clc1ccc(-c2n[nH]c(-c3ccccc3)n2)cc1 | 1.26
108 | 60% | 68 | 72% | COc1cccc(-c2n[nH]c(-c3ccccc3)n2)c1 | 1.59
526 |  | 640 |  | Clc1ccccc1-c1n[nH]c(-c2ccccc2)n1 | 
2240 | 45% | 5650 | 71% | CCn1nc(-c2ccc(Br)cc2)nc1-c1ccccc1 | 0.4
2290 | 60% |  | inactive | CCn1nc(-c2ccc(Cl)cc2)nc1-c1ccccc1 | 
701 | 50% | 1420 | 68% | CC(=O)n1nc(Cc2ccccc2)nc1-c1ccccc1 | 0.49
2470 | 65% |  | inactive | CCCCn1nc(-c2ccccc2)nc1-c1ccccc1 | 
77 | 62% | 85 | 73% | Cc1ccc(-c2n[nH]c(-c3ccccc3)n2)cc1 | 0.91
570 | 46% | 966 | 61% | Clc1ccccc1-c1n[nH]c(Cc2ccccc2)n1 | 0.59
 | inactive |  | inactive | c1ccc(-c2n[nH]c(-c3cccnc3)n2)cc1 | 
2180 | 58% |  | inactive | c1ccc(Cn2nc(-c3ccccc3)nc2-c2ccccc2)cc1 | 
 | inactive |  | inactive | CCn1nc(-c2ccccc2)nc1-c1ccccc1 | 
164 | 55% | 68 | 62% | Brc1ccc(-c2n[nH]c(-c3ccccc3)n2)cc1 | 2.41
2200 |  | 6150 |  | c1ccc(Cc2nc(-c3ccccc3)n[nH]2)cc1 | 0.36
2130 | 53% | 6710 | 61% | Clc1ccc(-c2nc(-c3ccccc3)n(Cc3ccccc3)n2)cc1 | 0.32
390 | 52% | 493 | 67% | Brc1ccccc1-c1n[nH]c(-c2ccccc2)n1 | 0.79
396 |  | 232 |  | CC(=O)n1nc(-c2ccccc2)nc1-c1ccccc1 | 
228 | 53% | 351 | 62% | CC(=O)n1nc(-c2ccc(C)cc2)nc1-c1ccccc1 | 0.65
 | inactive | 2570 | 73% | Clc1ccc(-c2n[nH]c(Cc3ccccc3)n2)cc1 | 
5030 | 78% | 712 | 69% | Brc1ccc(-c2nc(-c3ccccc3)n(Cc3ccccc3)n2)cc1 | 7.06
 | inactive |  | inactive | c1ccc(-c2nc(-c3ccccc3)n(C3CC3)n2)cc1 | 
115 | 62% | 109 | 78% | COc1cccc(-c2nc(-c3ccccc3)n(C(C)=O)n2)c1 | 1.06
 | inactive |  | inactive | CCCCn1nc(-c2ccc(Cl)cc2)nc1-c1ccccc1 | 
113 |  | 231 |  | CC(=O)n1nc(-c2ccc(Br)cc2)nc1-c1ccccc1 | 
